Laboratory results: paper PMC4022186 (Biochemistry, 2012)

Experiments:
[1] = biological target: T1, E. coli QueD (CPH4 synthase) (Escherichia coli, UniProt P65870); assay: preparative conversion to [[…]-2H]-CPH4; assay type: biochemical; settings: 5 mM sepiapterin, 15 μM QueD, 20 mM PIPES, 99.9% D2O, 20 h
[2] = biological target: T1, E. coli QueD (CPH4 synthase); assay: preparative conversion to [7R-D]-CPH4; assay type: biochemical; settings: 5 μM QueD, 20 mM PIPES pH 7.4, 10 mM DTT, 18 h, H2O

T1 sequence (P65870 whole entry): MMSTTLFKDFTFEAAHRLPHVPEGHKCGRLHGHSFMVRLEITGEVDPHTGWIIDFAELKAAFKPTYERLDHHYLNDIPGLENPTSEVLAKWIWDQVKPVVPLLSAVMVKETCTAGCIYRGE

Structure (SMILES)	preparative conversion to [6-2H]-CPH4; FT-ICR MS of product [1]	preparative conversion to [7R-D]-CPH4; FT-ICR MS of product [2]
C[C@H](O)C(=O)C1=Nc2c(nc(N)[nH]c2=O)NC1 [sepiapterin]	this reaction was used to prepare CPH4 containing deuterium at C-6	–
Nc1nc2c(c(=O)[nH]1)N=C([C@H](O)[C@H](O)COP(=O)(O)OP(=O)(O)OP(=O)(O)O)CN2 [H2NTP]	–	The resulting H2NTP was converted to CPH4 in a reaction mixture
